Data on four compounds can be found in BindingDB's records for patent US12264155 (Repare Therapeutics, 2025).

In general, IC50 refers to the concentration that gives 50% inhibition. Read a high IC50 as weaker potency in that assay.

Some results are limits rather than exact numbers.

In the experiment the target is Serine/threonine-protein kinase ATR (Homo sapiens, UniProt Q13535). Nature of the experiment: ATR/ATRIP Enzymatic Assay. The source says: Detection of ATR kinase activity utilized the AlphaScreen system to measure the phosphorylation of the substrate protein p53.
Chain of Serine/threonine-protein kinase ATR (Q13535 whole entry): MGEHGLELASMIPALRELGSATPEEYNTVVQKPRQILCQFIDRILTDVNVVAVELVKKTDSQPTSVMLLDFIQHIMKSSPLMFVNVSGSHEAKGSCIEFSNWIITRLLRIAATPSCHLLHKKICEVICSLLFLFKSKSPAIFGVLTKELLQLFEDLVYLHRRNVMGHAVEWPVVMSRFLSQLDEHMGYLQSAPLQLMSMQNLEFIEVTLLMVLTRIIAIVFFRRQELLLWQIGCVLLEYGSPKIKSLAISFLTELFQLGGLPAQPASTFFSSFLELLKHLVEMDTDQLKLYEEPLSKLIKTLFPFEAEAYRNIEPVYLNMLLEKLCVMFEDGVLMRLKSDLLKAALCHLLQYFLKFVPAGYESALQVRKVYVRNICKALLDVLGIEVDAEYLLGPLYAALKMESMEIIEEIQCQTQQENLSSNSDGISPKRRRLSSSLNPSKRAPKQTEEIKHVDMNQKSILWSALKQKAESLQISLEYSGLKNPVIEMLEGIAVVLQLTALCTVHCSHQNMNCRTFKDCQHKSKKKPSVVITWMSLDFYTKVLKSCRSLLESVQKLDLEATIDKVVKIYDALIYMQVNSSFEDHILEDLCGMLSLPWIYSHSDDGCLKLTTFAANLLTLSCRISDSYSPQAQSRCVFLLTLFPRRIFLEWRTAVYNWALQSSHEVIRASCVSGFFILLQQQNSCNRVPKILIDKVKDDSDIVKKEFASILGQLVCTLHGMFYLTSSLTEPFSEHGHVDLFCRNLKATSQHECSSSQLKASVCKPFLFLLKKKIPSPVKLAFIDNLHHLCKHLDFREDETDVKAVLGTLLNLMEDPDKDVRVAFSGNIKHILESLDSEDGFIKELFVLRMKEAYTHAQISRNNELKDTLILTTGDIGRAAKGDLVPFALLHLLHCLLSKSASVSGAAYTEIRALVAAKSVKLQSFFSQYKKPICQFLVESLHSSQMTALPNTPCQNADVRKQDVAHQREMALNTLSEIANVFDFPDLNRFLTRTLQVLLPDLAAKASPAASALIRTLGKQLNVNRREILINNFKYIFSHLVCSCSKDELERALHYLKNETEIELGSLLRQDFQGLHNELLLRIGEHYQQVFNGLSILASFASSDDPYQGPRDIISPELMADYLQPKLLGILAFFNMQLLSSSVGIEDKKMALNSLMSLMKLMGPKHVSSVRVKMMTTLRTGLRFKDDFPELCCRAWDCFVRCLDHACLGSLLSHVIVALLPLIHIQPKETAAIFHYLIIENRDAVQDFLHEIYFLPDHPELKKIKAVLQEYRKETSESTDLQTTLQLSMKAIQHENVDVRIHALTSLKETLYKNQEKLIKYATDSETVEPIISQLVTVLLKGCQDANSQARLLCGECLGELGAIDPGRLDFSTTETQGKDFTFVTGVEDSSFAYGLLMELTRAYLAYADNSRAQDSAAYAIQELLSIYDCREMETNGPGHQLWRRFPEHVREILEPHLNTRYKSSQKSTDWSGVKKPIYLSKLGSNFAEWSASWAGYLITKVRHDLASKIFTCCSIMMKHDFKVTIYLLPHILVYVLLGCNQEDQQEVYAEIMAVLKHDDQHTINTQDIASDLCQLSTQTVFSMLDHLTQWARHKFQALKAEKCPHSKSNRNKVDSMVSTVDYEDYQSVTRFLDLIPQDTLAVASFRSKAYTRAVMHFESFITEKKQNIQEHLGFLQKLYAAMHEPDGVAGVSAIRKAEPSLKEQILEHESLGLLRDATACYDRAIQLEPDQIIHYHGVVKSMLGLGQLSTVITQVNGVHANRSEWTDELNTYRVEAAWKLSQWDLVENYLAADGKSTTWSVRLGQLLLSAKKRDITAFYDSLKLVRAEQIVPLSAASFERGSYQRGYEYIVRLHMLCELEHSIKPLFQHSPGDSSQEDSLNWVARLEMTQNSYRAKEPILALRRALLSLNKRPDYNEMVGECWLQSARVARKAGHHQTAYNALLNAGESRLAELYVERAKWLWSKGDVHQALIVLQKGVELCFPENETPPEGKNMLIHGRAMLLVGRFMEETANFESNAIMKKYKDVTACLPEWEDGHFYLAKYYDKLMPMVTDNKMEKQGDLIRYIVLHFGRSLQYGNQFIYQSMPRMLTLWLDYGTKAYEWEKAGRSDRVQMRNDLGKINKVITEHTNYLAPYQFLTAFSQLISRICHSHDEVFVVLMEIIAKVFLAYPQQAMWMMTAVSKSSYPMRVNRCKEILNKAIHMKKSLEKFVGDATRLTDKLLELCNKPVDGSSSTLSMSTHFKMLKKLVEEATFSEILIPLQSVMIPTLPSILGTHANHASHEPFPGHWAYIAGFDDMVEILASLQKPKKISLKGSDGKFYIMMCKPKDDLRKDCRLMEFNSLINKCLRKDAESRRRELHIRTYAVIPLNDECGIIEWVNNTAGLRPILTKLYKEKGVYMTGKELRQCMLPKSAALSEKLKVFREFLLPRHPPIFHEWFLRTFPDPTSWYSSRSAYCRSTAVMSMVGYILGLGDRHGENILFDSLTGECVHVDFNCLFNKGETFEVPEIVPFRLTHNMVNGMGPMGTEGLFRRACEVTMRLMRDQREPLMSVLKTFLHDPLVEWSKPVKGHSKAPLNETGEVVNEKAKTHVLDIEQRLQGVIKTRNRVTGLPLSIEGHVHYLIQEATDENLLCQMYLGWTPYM
Regarding `C[C@@H]1COCCN1c1cc(C(C)(C)C#N)c2c(Br)nn(-c3cc[nH]n3)c2n1` [US12264155, Compound 70], the IC50 is under 0.005 µM.
For the compound `C[C@@H]1COCCN1c1cc(N2CCOC2=O)c2ccn(-c3cc[nH]n3)c2n1` [US12264155, Compound 26], the midpoint of inhibition, the IC50, lay at 0.86 µM.
In the case of `C[C@@H]1COCCN1c1cc(C2(O)CCC3(CCC3)CC2)c2cnn(-c3cc[nH]n3)c2n1` [US12264155, Compound 58] it was 0.006 µM.
Under `C[C@@H]1COCCN1c1cc(OCC(F)(F)F)c2cnn(-c3cc[nH]n3)c2n1` [US12264155, Compound 55] stands 0.013 µM.
